Results as given in US20240158370A1, “CK1 alpha AND DUAL CK1 alpha / GSPT1 DEGRADING COMPOUNDS” (Innovo Therapeutics, Inc., priority 2022, published 2024).

Experiments:
[1] = target: GSPT1 (Homo sapiens, UniProt P15170+Q96SW2); assay: HiBiT degradation assay, GSPT1, Procedure A; assay type: cell-based; design: HiBit-GSPT1 KI HEK293(LgBit) Cells; host or cells: HEK293(LgBit) knock-in cells; settings: six hours incubation
Outline: (§1)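 Luminescence from HiBiT lytic detection reports remaining tagged protein after cells sit six hours at 37° C with compound across ten concentrations (10 μM down to 0.005 μM, 0.1% DMSO). A 4-parameter curve fit gives DC50 and Ymin.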

[2] = target: T1, CK1α (Homo sapiens, UniProt P48729+Q96SW2); assay: HiBiT degradation assay, CK1α, Procedure A; assay type: cell-based; settings: six hours incubation
T1 construct: CSNK1A1-HiBit KI HEK293(LgBit) Cells; host or cells: HEK293(LgBit) knock-in cells
Outline: as §1

Sequence of GSPT1 (P15170 whole entry): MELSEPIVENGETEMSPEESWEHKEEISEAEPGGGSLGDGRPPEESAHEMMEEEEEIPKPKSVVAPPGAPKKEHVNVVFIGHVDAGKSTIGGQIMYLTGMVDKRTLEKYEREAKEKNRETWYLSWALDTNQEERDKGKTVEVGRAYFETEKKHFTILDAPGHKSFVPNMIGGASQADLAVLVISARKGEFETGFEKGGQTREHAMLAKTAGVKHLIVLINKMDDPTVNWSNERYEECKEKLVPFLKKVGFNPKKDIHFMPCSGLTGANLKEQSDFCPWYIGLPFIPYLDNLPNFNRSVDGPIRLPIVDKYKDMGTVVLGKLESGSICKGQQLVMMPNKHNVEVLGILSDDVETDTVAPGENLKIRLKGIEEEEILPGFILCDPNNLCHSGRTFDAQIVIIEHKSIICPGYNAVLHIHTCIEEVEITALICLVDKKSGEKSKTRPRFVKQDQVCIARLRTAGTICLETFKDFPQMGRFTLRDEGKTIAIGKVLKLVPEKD
Sequence of GSPT1 (Q96SW2 whole entry): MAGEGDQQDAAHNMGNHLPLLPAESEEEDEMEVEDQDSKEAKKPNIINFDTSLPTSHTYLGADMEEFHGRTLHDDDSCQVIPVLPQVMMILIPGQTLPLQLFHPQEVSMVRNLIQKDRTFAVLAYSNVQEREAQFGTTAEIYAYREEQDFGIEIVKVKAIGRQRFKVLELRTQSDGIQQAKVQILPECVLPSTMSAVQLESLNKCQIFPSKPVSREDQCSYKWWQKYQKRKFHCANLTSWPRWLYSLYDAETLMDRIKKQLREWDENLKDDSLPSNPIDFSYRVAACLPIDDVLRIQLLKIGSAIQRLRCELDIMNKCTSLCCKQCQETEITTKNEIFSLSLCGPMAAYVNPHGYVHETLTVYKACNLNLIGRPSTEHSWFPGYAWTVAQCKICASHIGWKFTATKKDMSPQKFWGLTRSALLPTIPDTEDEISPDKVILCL
Sequence of GSPT1 (Q16531 whole entry partner): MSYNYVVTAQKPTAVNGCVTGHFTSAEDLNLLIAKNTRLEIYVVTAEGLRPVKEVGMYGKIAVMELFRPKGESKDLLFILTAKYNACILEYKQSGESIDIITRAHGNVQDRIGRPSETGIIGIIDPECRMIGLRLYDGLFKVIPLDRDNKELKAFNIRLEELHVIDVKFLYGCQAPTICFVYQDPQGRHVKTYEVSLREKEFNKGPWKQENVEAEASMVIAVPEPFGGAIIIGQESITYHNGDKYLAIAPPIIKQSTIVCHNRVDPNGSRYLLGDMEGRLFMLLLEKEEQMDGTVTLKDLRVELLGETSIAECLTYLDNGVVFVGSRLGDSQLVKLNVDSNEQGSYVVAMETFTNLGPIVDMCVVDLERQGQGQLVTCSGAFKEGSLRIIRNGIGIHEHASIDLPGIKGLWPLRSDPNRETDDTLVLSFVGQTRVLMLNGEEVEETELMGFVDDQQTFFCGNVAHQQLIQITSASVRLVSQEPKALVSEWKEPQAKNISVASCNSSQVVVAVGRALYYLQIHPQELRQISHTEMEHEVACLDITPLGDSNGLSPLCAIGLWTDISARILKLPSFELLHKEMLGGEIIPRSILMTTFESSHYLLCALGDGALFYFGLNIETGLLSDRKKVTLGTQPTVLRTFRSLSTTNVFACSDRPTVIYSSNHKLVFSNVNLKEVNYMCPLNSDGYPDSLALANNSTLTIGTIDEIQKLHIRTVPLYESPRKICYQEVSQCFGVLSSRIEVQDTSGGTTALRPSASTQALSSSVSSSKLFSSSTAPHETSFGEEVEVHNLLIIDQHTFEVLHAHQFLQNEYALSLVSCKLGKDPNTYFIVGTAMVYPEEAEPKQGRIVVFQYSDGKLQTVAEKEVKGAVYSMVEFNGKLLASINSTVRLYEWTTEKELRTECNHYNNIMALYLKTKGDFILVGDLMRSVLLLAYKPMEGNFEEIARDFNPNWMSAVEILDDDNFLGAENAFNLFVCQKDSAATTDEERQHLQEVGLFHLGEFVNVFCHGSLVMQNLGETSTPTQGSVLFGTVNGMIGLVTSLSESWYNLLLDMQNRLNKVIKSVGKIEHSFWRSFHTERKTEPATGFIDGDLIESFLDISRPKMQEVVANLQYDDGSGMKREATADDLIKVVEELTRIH
T1 sequence (P48729 whole entry): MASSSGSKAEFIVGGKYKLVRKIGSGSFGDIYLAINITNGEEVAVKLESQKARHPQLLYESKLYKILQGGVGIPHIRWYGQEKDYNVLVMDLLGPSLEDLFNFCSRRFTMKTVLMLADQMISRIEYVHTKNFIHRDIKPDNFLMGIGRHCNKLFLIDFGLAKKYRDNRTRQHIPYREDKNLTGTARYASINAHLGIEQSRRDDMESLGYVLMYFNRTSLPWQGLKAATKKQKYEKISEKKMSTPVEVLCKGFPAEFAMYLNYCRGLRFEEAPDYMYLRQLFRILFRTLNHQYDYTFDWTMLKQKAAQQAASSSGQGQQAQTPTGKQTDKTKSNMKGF
T1 sequence (Q96SW2 whole entry): as the sequence (Q96SW2 whole entry) above
T1 sequence (Q16531 whole entry partner): as the sequence (Q16531 whole entry partner) above

`Cc1ccc(-c2c(-c3ccc4c(c3)CN(C3CCC(=O)NC3=O)C4=O)ncn2C)cc1F` (stereo not shown) [Example 240] was tested. Which DC50 [1] did it give?
The DC50 was under 25 nM.

What about the “GSPT1 Ymin” value [1] of the same molecule?
The value was “E (E = >25-75% remaining)”.

What about the “CK1α Ymin” value [2] of the same molecule?
The value was “D (D = >10- 25% remaining)”.

And the DC50 [2]?
The DC50 was under 25 nM.

Which DC50 [1] does the source give for `Cc1cc(-c2c(-c3ccc4c(c3)CN(C3CCC(=O)NC3=O)C4=O)ncn2C)c(C)s1` (stereo not shown) [Example 241] here?
The DC50 was at least 25 nM.

What about the “GSPT1 Ymin” value [1] of the same molecule?
The value was “F (F = >75-100% remaining)”.

And the “CK1α Ymin” value [2]?
Its value is “D (D = >10- 25% remaining)”.

What about the DC50 [2] of the same molecule?
Its DC50 is under 25 nM.

Which results are given for `Cn1cnc(-c2ccc3c(c2)CN(C2CCC(=O)NC2=O)C3=O)c1-c1cccc(F)c1F` (stereo not shown) [Example 242]?
DC50 [1]: < 25 nM; GSPT1 Ymin [1]: F (F = >75-100% remaining); CK1α Ymin [2]: D (D = >10- 25% remaining); DC50 [2]: < 25 nM

`Cc1ccc(C#N)cc1-c1c(-c2ccc3c(c2)CN(C2CCC(=O)NC2=O)C3=O)ncn1C` (stereo not shown) [Example 243] was tested. Which DC50 [1] did it give?
The DC50 was at least 25 nM.

And the “GSPT1 Ymin” value [1]?
The value was “F (F = >75-100% remaining)”.

What about the “CK1α Ymin” value [2] of the same molecule?
The value was “E (E = >25-75% remaining)”.

And the DC50 [2]?
Its DC50 is at least 25 nM.

With `Cc1ccc(-c2c(-c3ccc4c(c3)CN(C3CCC(=O)NC3=O)C4=O)ncn2C)c(C#N)c1` (stereo not shown) [Example 244] as the molecule, how does the DC50 [1] read?
Its DC50 is at least 25 nM.

What about the “GSPT1 Ymin” value [1] of the same molecule?
The value was “F (F = >75-100% remaining)”.

What about the “CK1α Ymin” value [2] of the same molecule?
Its value is “D (D = >10- 25% remaining)”.

What about the DC50 [2] of the same molecule?
The DC50 was under 25 nM.

What does the source list for `Cn1cnc(-c2ccc3c(c2)CN(C2CCC(=O)NC2=O)C3=O)c1-c1ccc2c(c1)OCC2` (stereo not shown) [Example 245]?
DC50 [1]: ≥ 25 nM; GSPT1 Ymin [1]: F (F = >75-100% remaining); CK1α Ymin [2]: E (E = >25-75% remaining); DC50 [2]: < 25 nM

What does the source list for `CC(C)c1ccc(-c2c(-c3ccc4c(c3)CN(C3CCC(=O)NC3=O)C4=O)ncn2C)cc1` (stereo not shown) [Example 246]?
DC50 [1]: ≥ 25 nM; GSPT1 Ymin [1]: F (F = >75-100% remaining); CK1α Ymin [2]: E (E = >25-75% remaining); DC50 [2]: < 25 nM

Which DC50 [1] does the source give for `Cn1cnc(-c2ccc3c(c2)CN(C2CCC(=O)NC2=O)C3=O)c1-c1cccc(C#N)c1F` (stereo not shown) [Example 247] here?
The DC50 was at least 25 nM.

And the “CK1α Ymin” value [2]?
The value was “E (E = >25-75% remaining)”.

And the DC50 [2]?
The DC50 was under 25 nM.

Which DC50 [1] does the source give for `Cn1cnc(-c2ccc3c(c2)CN(C2CCC(=O)NC2=O)C3=O)c1-c1cccc(C(N)=O)c1` (stereo not shown) [Example 248] here?
Its DC50 is at least 25 nM.

And the “GSPT1 Ymin” value [1]?
The value was “E (E = >25-75% remaining)”.

And the “CK1α Ymin” value [2]?
The value was “D (D = >10- 25% remaining)”.

What about the DC50 [2] of the same molecule?
The DC50 was at least 25 nM.

Which results are given for `COc1ccc(C)cc1-c1c(-c2ccc3c(c2)CN(C2CCC(=O)NC2=O)C3=O)ncn1C` (stereo not shown) [Example 249]?
DC50 [1]: ≥ 25 nM; GSPT1 Ymin [1]: F (F = >75-100% remaining); CK1α Ymin [2]: D (D = >10- 25% remaining); DC50 [2]: < 25 nM

What does the source list for `COCc1ccc(-c2c(-c3ccc4c(c3)CN(C3CCC(=O)NC3=O)C4=O)ncn2C)cc1` (stereo not shown) [Example 250]?
DC50 [1]: < 25 nM; GSPT1 Ymin [1]: E (E = >25-75% remaining); CK1α Ymin [2]: C (C = 0-10% remaining); DC50 [2]: < 25 nM

What does the source list for `COc1cc(-c2c(-c3ccc4c(c3)CN(C3CCC(=O)NC3=O)C4=O)ncn2C)ccc1C` (stereo not shown) [Example 251]?
DC50 [1]: ≥ 25 nM; GSPT1 Ymin [1]: F (F = >75-100% remaining); CK1α Ymin [2]: D (D = >10- 25% remaining); DC50 [2]: < 25 nM

Which DC50 [1] does the source give for `Cc1ccc(-c2c(-c3ccc4c(c3)CN(C3CCC(=O)NC3=O)C4=O)ncn2C)cc1CO` (stereo not shown) [Example 252] here?
Its DC50 is at least 25 nM.

And the “GSPT1 Ymin” value [1]?
Its value is “E (E = >25-75% remaining)”.

What about the “CK1α Ymin” value [2] of the same molecule?
The value was “D (D = >10- 25% remaining)”.

And the DC50 [2]?
Its DC50 is under 25 nM.

Which results are given for `COc1ccc(-c2c(-c3ccc4c(c3)CN(C3CCC(=O)NC3=O)C4=O)ncn2C)cc1O` (stereo not shown) [Example 253]?
DC50 [1]: < 25 nM; GSPT1 Ymin [1]: D (D = >10- 25% remaining); CK1α Ymin [2]: C (C = 0-10% remaining); DC50 [2]: < 25 nM

What does the source list for `Cc1cc(Cl)ccc1-c1c(-c2ccc3c(c2)CN(C2CCC(=O)NC2=O)C3=O)ncn1C` (stereo not shown) [Example 254]?
DC50 [1]: < 25 nM; GSPT1 Ymin [1]: E (E = >25-75% remaining); CK1α Ymin [2]: E (E = >25-75% remaining); DC50 [2]: < 25 nM

What does the source list for `Cn1cnc(-c2ccc3c(c2)CN(C2CCC(=O)NC2=O)C3=O)c1-c1cccc2ccccc12` (stereo not shown) [Example 255]?
DC50 [1]: < 25 nM; GSPT1 Ymin [1]: F (F = >75-100% remaining); CK1α Ymin [2]: E (E = >25-75% remaining); DC50 [2]: < 25 nM

For `Cn1cnc(-c2ccc3c(c2)CN(C2CCC(=O)NC2=O)C3=O)c1-c1ccc2ccccc2c1` (stereo not shown) [Example 256], which DC50 [1] is on record?
Its DC50 is under 25 nM.

And the “GSPT1 Ymin” value [1]?
Its value is “E (E = >25-75% remaining)”.

And the “CK1α Ymin” value [2]?
Its value is “C (C = 0-10% remaining)”.

What about the DC50 [2] of the same molecule?
The DC50 was under 25 nM.

Which results are given for `Cn1cnc(-c2ccc3c(c2)CN(C2CCC(=O)NC2=O)C3=O)c1-c1ccc(F)c(Cl)c1` (stereo not shown) [Example 257]?
DC50 [1]: ≥ 25 nM; GSPT1 Ymin [1]: F (F = >75-100% remaining); CK1α Ymin [2]: D (D = >10- 25% remaining); DC50 [2]: < 25 nM

`Cn1cnc(-c2ccc3c(c2)CN(C2CCC(=O)NC2=O)C3=O)c1-c1ccc(Cl)cc1F` (stereo not shown) [Example 258] was tested. Which DC50 [1] did it give?
The DC50 was at least 25 nM.

And the “GSPT1 Ymin” value [1]?
Its value is “E (E = >25-75% remaining)”.

And the “CK1α Ymin” value [2]?
The value was “D (D = >10- 25% remaining)”.

What about the DC50 [2] of the same molecule?
The DC50 was under 25 nM.

What does the source list for `Cn1cnc(-c2ccc3c(c2)CN(C2CCC(=O)NC2=O)C3=O)c1-c1ccc(F)cc1Cl` (stereo not shown) [Example 259]?
DC50 [1]: < 25 nM; GSPT1 Ymin [1]: E (E = >25-75% remaining); CK1α Ymin [2]: D (D = >10- 25% remaining); DC50 [2]: < 25 nM

With `Cn1cnc(-c2ccc3c(c2)CN(C2CCC(=O)NC2=O)C3=O)c1-c1ccc(Cl)c(F)c1` (stereo not shown) [Example 260] as the molecule, how does the DC50 [1] read?
Its DC50 is under 25 nM.

And the “GSPT1 Ymin” value [1]?
Its value is “F (F = >75-100% remaining)”.

And the “CK1α Ymin” value [2]?
The value was “D (D = >10- 25% remaining)”.

What about the DC50 [2] of the same molecule?
Its DC50 is under 25 nM.

How did the DC50 [1] turn out when `Cn1cnc(-c2ccc3c(c2)CN(C2CCC(=O)NC2=O)C3=O)c1-c1cc(Cl)ccc1F` (stereo not shown) [Example 261] was run?
Its DC50 is at least 25 nM.

And the “GSPT1 Ymin” value [1]?
Its value is “F (F = >75-100% remaining)”.

And the “CK1α Ymin” value [2]?
The value was “E (E = >25-75% remaining)”.

What about the DC50 [2] of the same molecule?
Its DC50 is under 25 nM.

Which results are given for `Cn1cnc(-c2ccc3c(c2)CN(C2CCC(=O)NC2=O)C3=O)c1-c1cccc(F)c1Cl` (stereo not shown) [Example 262]?
DC50 [1]: ≥ 25 nM; GSPT1 Ymin [1]: F (F = >75-100% remaining); CK1α Ymin [2]: D (D = >10- 25% remaining); DC50 [2]: < 25 nM

Which DC50 [1] does the source give for `COc1cc(C#N)ccc1-c1c(-c2ccc3c(c2)CN(C2CCC(=O)NC2=O)C3=O)ncn1C` (stereo not shown) [Example 263] here?
Its DC50 is under 25 nM.

And the “GSPT1 Ymin” value [1]?
The value was “F (F = >75-100% remaining)”.

What about the “CK1α Ymin” value [2] of the same molecule?
Its value is “E (E = >25-75% remaining)”.

What about the DC50 [2] of the same molecule?
The DC50 was at least 25 nM.

With `CN1Cc2cccc(-c3c(-c4ccc5c(c4)CN(C4CCC(=O)NC4=O)C5=O)ncn3C)c2C1` (stereo not shown) [Example 264] as the molecule, how does the DC50 [1] read?
The DC50 was under 25 nM.

What about the “GSPT1 Ymin” value [1] of the same molecule?
Its value is “E (E = >25-75% remaining)”.

What about the “CK1α Ymin” value [2] of the same molecule?
The value was “E (E = >25-75% remaining)”.

And the DC50 [2]?
The DC50 was at least 25 nM.

`CC(C)Cc1ccc(-c2c(-c3ccc4c(c3)CN(C3CCC(=O)NC3=O)C4=O)ncn2C)cc1` (stereo not shown) [Example 265] was tested. Which DC50 [1] did it give?
Its DC50 is at least 25 nM.

And the “GSPT1 Ymin” value [1]?
The value was “F (F = >75-100% remaining)”.

What about the “CK1α Ymin” value [2] of the same molecule?
Its value is “D (D = >10- 25% remaining)”.

And the DC50 [2]?
Its DC50 is under 25 nM.

For `Cn1cnc(-c2ccc3c(c2)CN(C2CCC(=O)NC2=O)C3=O)c1-c1cccc(C(C)(C)C)c1` (stereo not shown) [Example 266], which DC50 [1] is on record?
The DC50 was under 25 nM.

What about the “GSPT1 Ymin” value [1] of the same molecule?
Its value is “F (F = >75-100% remaining)”.

And the “CK1α Ymin” value [2]?
The value was “E (E = >25-75% remaining)”.

And the DC50 [2]?
Its DC50 is at least 25 nM.

For `CNC(=O)c1ccc(-c2c(-c3ccc4c(c3)CN(C3CCC(=O)NC3=O)C4=O)ncn2C)cc1` (stereo not shown) [Example 267], which DC50 [1] is on record?
The DC50 was at least 25 nM.

What about the “GSPT1 Ymin” value [1] of the same molecule?
The value was “F (F = >75-100% remaining)”.

What about the “CK1α Ymin” value [2] of the same molecule?
The value was “C (C = 0-10% remaining)”.

What about the DC50 [2] of the same molecule?
The DC50 was at least 25 nM.

Which DC50 [1] does the source give for `CNC(=O)c1cccc(-c2c(-c3ccc4c(c3)CN(C3CCC(=O)NC3=O)C4=O)ncn2C)c1` (stereo not shown) [Example 268] here?
The DC50 was at least 25 nM.

What about the “GSPT1 Ymin” value [1] of the same molecule?
Its value is “F (F = >75-100% remaining)”.

What about the “CK1α Ymin” value [2] of the same molecule?
The value was “D (D = >10- 25% remaining)”.

What about the DC50 [2] of the same molecule?
Its DC50 is at least 25 nM.
